# Reference: patent US10456407B2, “Combination therapy for treating cancer” (Epizyme, Inc., priority 2015, dated 2019)
# Test system: WSU-DLCL2 cells
# Assay: RT2 Glucocorticoid signaling PCR array, WSU-DLCL2 (WSU) cell line (Table 4c)
# Format: cell-based
compound,measurement,setting,value
"C[C@]12C=CC(=O)C=C1CC[C@@H]1[C@@H]2[C@@H](O)C[C@@]2(C)[C@H]1CC[C@]2(O)C(=O)CO [Prednisolone, prednisolone]","ΔCT (B2M), MERTK",gene MERTK,13.379
same,"Ct Values, MT2A",gene MT2A,24.518
same,"ΔCT (B2M), MT2A",gene MT2A,5.373
same,"ΔΔCT, MT2A","gene MT2A, compared to DMSO",0.106
same,"Ct Values, NFKBIA",gene NFKBIA,22.895
same,"ΔCT (B2M), NFKBIA",gene NFKBIA,3.750
same,"ΔΔCT, NFKBIA","gene NFKBIA, compared to DMSO",0.829
same,"Ct Values, NR3C1",gene NR3C1,23.110
same,"ΔCT (B2M), NR3C1",gene NR3C1,3.965
same,"ΔΔCT, NR3C1","gene NR3C1, compared to DMSO",0.165
same,"Ct Values, PDCD7",gene PDCD7,23.874
same,"ΔCT (B2M), PDCD7",gene PDCD7,4.729
same,"ΔΔCT, PDCD7","gene PDCD7, compared to DMSO",0.000
same,"Ct Values, PDP1",gene PDP1,24.957
same,"ΔCT (B2M), PDP1",gene PDP1,5.812
same,"ΔΔCT, PDP1","gene PDP1, compared to DMSO",−0.109
same,"Ct Values, PER1",gene PER1,24.989
same,"ΔCT (B2M), PER1",gene PER1,5.844
same,"ΔΔCT, PER1","gene PER1, compared to DMSO",0.185
same,"Ct Values, PER2",gene PER2,24.218
same,"ΔCT (B2M), PER2",gene PER2,5.073
same,"ΔΔCT, PER2","gene PER2, compared to DMSO",0.072
same,"Ct Values, PIK3R1",gene PIK3R1,23.429
same,"ΔCT (B2M), PIK3R1",gene PIK3R1,4.284
same,"ΔΔCT, PIK3R1","gene PIK3R1, compared to DMSO",0.000
same,"Ct Values, PLD1",gene PLD1,35.266
same,"ΔCT (B2M), PLD1",gene PLD1,16.121
same,"Ct Values, PLEKHF1",gene PLEKHF1,26.977
same,"ΔCT (B2M), PLEKHF1",gene PLEKHF1,7.832
same,"ΔΔCT, PLEKHF1","gene PLEKHF1, compared to DMSO",0.077
same,"Ct Values, POU2F1",gene POU2F1,24.368
same,"ΔCT (B2M), POU2F1",gene POU2F1,5.223
same,"ΔΔCT, POU2F1","gene POU2F1, compared to DMSO",0.439
same,"Ct Values, POU2F2",gene POU2F2,22.565
same,"ΔCT (B2M), POU2F2",gene POU2F2,3.420
same,"ΔΔCT, POU2F2","gene POU2F2, compared to DMSO",−0.753
same,"Ct Values, RASA3",gene RASA3,23.454
same,"ΔCT (B2M), RASA3",gene RASA3,4.309
same,"ΔΔCT, RASA3","gene RASA3, compared to DMSO",−0.193
same,"Ct Values, RGS2",gene RGS2,23.962
same,"ΔCT (B2M), RGS2",gene RGS2,4.817
same,"ΔΔCT, RGS2","gene RGS2, compared to DMSO",1.365
same,"Ct Values, RHO8",gene RHO8,28.803
same,"ΔCT (B2M), RHO8",gene RHO8,9.658
same,"ΔΔCT, RHO8","gene RHO8, compared to DMSO",−0.616
same,"Ct Values, RPLP0",gene RPLP0,15.330
same,"ΔCT (B2M), RPLP0",gene RPLP0,−3.815
same,"Ct Values, SESN1",gene SESN1,25.915
same,"ΔCT (B2M), SESN1",gene SESN1,6.770
same,"ΔΔCT, SESN1","gene SESN1, compared to DMSO",−2.469
same,"Ct Values, SGK1",gene SGK1,27.309
same,"ΔCT (B2M), SGK1",gene SGK1,8.164
same,"ΔΔCT, SGK1","gene SGK1, compared to DMSO",2.035
same,"Ct Values, SLC10A6",gene SLC10A6,37.200
same,"ΔCT (B2M), SLC10A6",gene SLC10A6,18.055
same,"ΔΔCT, SLC10A6","gene SLC10A6, compared to DMSO",0.888
same,"Ct Values, SLC19A2",gene SLC19A2,25.887
same,"ΔCT (B2M), SLC19A2",gene SLC19A2,6.742
same,"ΔΔCT, SLC19A2","gene SLC19A2, compared to DMSO",−0.446
same,"Ct Values, SLC22A5",gene SLC22A5,29.427
same,"ΔCT (B2M), SLC22A5",gene SLC22A5,10.282
same,"ΔΔCT, SLC22A5","gene SLC22A5, compared to DMSO",0.831
same,"Ct Values, SNTA1",gene SNTA1,24.329
same,"ΔCT (B2M), SNTA1",gene SNTA1,5.184
same,"ΔΔCT, SNTA1","gene SNTA1, compared to DMSO",0.196
same,"Ct Values, SPHK1",gene SPHK1,29.804
same,"ΔCT (B2M), SPHK1",gene SPHK1,10.659
same,"ΔΔCT, SPHK1","gene SPHK1, compared to DMSO",0.466
same,"Ct Values, SPSB1",gene SPSB1,29.963
same,"ΔCT (B2M), SPSB1",gene SPSB1,10.818
same,"ΔΔCT, SPSB1","gene SPSB1, compared to DMSO",0.655
same,"Ct Values, STAT5A",gene STAT5A,25.699
same,"ΔCT (B2M), STAT5A",gene STAT5A,6.554
same,"ΔΔCT, STAT5A","gene STAT5A, compared to DMSO",0.437
same,"Ct Values, STAT5B",gene STAT5B,23.270
same,"ΔCT (B2M), STAT5B",gene STAT5B,4.125
same,"ΔΔCT, STAT5B","gene STAT5B, compared to DMSO",0.161
same,"Ct Values, TBL1XR1",gene TBL1XR1,21.479
same,"ΔCT (B2M), TBL1XR1",gene TBL1XR1,2.334
same,"ΔΔCT, TBL1XR1","gene TBL1XR1, compared to DMSO",0.182
same,"Ct Values, TNF",gene TNF,24.151
same,"ΔCT (B2M), TNF",gene TNF,5.006
same,"ΔΔCT, TNF","gene TNF, compared to DMSO",0.762
same,"Ct Values, TNFAIP3",gene TNFAIP3,26.733
same,"ΔCT (B2M), TNFAIP3",gene TNFAIP3,7.588
same,"ΔΔCT, TNFAIP3","gene TNFAIP3, compared to DMSO",2.092
same,"Ct Values, TSC22D3",gene TSC22D3,22.481
same,"ΔCT (B2M), TSC22D3",gene TSC22D3,3.336
same,"ΔΔCT, TSC22D3","gene TSC22D3, compared to DMSO",−2.728
same,"Ct Values, USP2",gene USP2,20.884
same,"ΔCT (B2M), USP2",gene USP2,1.739
same,"ΔΔCT, USP2","gene USP2, compared to DMSO",−1.457
same,"Ct Values, USPS4",gene USPS4,26.453
same,"ΔCT (B2M), USPS4",gene USPS4,7.308
same,"ΔΔCT, USPS4","gene USPS4, compared to DMSO",0.209
same,"Ct Values, VDR",gene VDR,29.232
same,"ΔCT (B2M), VDR",gene VDR,10.087
same,"ΔΔCT, VDR","gene VDR, compared to DMSO",−0.565
same,"Ct Values, VLDLR",gene VLDLR,30.596
same,"ΔCT (B2M), VLDLR",gene VLDLR,11.451
same,"ΔΔCT, VLDLR","gene VLDLR, compared to DMSO",2.649
same,"Ct Values, ZFP36",gene ZFP36,25.166
same,"ΔCT (B2M), ZFP36",gene ZFP36,6.021
same,"ΔΔCT, ZFP36","gene ZFP36, compared to DMSO",1.104
same,"Ct Values, ZHX3",gene ZHX3,25.570
same,"ΔCT (B2M), ZHX3",gene ZHX3,6.425
same,"ΔΔCT, ZHX3","gene ZHX3, compared to DMSO",0.101
same,"Ct Values, ZNF281",gene ZNF281,23.608
same,"ΔCT (B2M), ZNF281",gene ZNF281,4.463
same,"ΔΔCT, ZNF281","gene ZNF281, compared to DMSO",−0.094
